Results published in patent US20070117182A1, “Nucleic acids conferring transcriptional responsiveness on the RANKL gene promoter and uses thereof” (Wisconsin Alumni Research Foundation, priority 2005, published 2007).

Test system: OPN promoter
Assay: ChIP of VDR/RXR at OPN promoter in ST2 cells
Type: cell-based, mouse
Details: 10^-7 M, 6 hours
Experimental: FIG. 3. ChIP/chip analysis of the RANKL gene locus. A) ChIP: ST2 cells were treated with either vehicle or 1,25(OH)2D3 (10^−7 M) and after 6 hours subjected to ChIP using antibodies to VDR, RXR and IgG. Precipitated DNA was analyzed for the presence of either the Cyp24 or the OPN promoter. B) Arrangement of the mouse RANKL gene locus and position of flanking genes. RANKL gene is transcribed on the reverse strand (right to left). C) DNA chip: Precipitated DNA was linearly amplified and then subjected to chip analysis using tiled oligonucleotide arrays containing 50-mers spanning the RANKL gene locus as described in the text. Hybridization data derived from the arrays are indicated in log2 scale across the locus with nucleotide positions on chromosome 14 indicated on the X axis. The first set of two arrays provide linear data comparing IgG (±1,25(OH)2D3) and VDR (±1,25(OH)2D3) over the RANKL upstream regions. The second set of three arrays provides an expanded view of hybridization data comparing VDR (±1,25(OH)2D3), VDR (+1,25(OH)2D3 vs input DNA) and RXR (+1,25(OH)2D3 vs input DNA). VDR/RXR binding regions D1-D5 are tracked by the shading.
As a first step, the inventors treated ST2 cells with either vehicle or 1,25(OH)2D3 for 6 hours, fixed the cells with formalin, and then subjected the cell lysates to ChIP analysis using antibodies to VDR, RXR, and an IgG control. […]

Compound: C=C1/C(=C\C=C2/CCC[C@]3(C)[C@@H]([C@H](C)CCCC(C)(C)O)CC[C@@H]23)C[C@@H](O)C[C@@H]1O [1,25(OH)2D3]
- abundance of OPN promoter DNA precipitated with VDR and RXR antibodies: clearly increased the abundance of DNA
